The text below walks through data of US5183743A, “Chromogenic dibenzoxazepinone and dibenzothiazepinone enzyme substrates” (Miles Inc., priority 1991, dated 1993).

The test system of data set [1] is β-galactosidase. Briefly: enzymatic cleavage of substrate to (20) by β-galactosidase. The format is biochemical. The settings on record: in the presence of β-galactosidase. The procedure:
(§1) When dissolved in 50 mM phosphate buffer at pH 7.4 containing 5 mM magnesium chloride (MgCl2) compound (23)+(24) (mixture) had λmax of 454 nm (ε =22,000) and 344 nm (ε =14,000).

Data set [2] in a line: UV/visible absorption in 50 mM phosphate buffer pH 7.4 containing 5 mM MgCl2. The format is physicochemical. Particulars: 50 mM phosphate buffer pH 7.4, 5 mM MgCl2. As for the experimental part:
as §1

The conditions of data set [3]: protonated vs deprotonated form; cited from earlier work.

As a reminder, the Km is the concentration of substrate that gives half-maximal velocity. Regarding “8-β-D-Galactopyranosyloxy-11-methyl-11H-dibenz[b,e][1,4]oxazepin-1-one(23) and 2-β-D-galactopyranosyloxy-11-methyl-11H-dibenz[b,e][-1,4]oxazepin-8-one (24) [(23)+(24)]”, in data set [1], the Km came out at 75 µM. Further, in data set [1], the “rate (Kcat) of cleavage to (20)” value is recorded as 1.32×10^4 mol. min^-1 /mol. active site. Besides, the “ε at λmax 344 nm” value in data set [2] (344 nm) is given as 14,000. In addition, in data set [2] (454 nm), the “ε at λmax 454 nm” value is given as 22,000. Also, the λmax in data set [2] (long-wavelength maximum) was 454 nm; in data set [2] (second maximum) it was 344 nm.
Take `CC1Oc2cc(O)ccc2N=C2C=CC(=O)C=C21` (stereo not shown) [(20)]: in data set [3], the “shift in absorption (λmax) between the protonated form and the deprotonated form” value is reported as 122 nm.
